Legend:
Neprilysin [1] = molecular target: T1, Neprilysin (Homo sapiens, UniProt P08473); experiment: Inhibition of NEP (unknown origin)
Neprilysin [2] = molecular target: T1, Neprilysin; experiment: Binding affinity to NEP (unknown origin) assessed as inhibition constant
[3] = molecular target: T2, Type-2 angiotensin II receptor (Homo sapiens, UniProt P50052); experiment: Inhibition of Angiotensin-2 receptor (unknown origin)
T2 sequence (P50052 whole entry): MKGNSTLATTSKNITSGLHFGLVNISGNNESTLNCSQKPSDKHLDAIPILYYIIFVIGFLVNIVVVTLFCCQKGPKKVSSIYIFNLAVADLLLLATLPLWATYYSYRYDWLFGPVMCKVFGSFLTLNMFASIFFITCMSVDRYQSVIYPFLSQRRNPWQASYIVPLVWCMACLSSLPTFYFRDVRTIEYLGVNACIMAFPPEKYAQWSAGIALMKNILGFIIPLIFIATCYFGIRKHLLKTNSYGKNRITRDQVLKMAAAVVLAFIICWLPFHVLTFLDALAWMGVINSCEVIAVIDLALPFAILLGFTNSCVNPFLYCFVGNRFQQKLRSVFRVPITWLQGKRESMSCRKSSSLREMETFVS

T1 sequence (P08473 whole entry): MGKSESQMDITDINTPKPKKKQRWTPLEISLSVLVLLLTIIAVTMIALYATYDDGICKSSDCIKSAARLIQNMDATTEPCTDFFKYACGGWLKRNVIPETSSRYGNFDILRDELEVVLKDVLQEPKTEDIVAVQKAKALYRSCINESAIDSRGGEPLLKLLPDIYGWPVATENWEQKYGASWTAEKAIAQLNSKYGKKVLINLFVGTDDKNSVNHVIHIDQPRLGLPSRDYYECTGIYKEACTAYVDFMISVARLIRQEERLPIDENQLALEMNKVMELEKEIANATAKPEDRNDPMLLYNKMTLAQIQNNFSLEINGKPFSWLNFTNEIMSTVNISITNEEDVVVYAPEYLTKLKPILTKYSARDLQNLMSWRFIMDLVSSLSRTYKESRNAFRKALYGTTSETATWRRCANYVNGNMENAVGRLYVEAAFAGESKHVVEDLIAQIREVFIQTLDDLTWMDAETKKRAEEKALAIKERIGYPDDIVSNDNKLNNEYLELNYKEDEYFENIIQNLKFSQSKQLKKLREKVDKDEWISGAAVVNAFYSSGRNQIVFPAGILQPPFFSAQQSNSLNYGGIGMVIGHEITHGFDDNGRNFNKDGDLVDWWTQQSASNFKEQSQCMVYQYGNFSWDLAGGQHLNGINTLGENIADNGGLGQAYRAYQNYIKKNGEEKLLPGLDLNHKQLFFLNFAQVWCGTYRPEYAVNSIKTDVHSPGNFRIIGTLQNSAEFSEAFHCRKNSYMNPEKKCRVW

| SMILES | IC50 (Neprilysin [1]) [nM] | Ki (Neprilysin [2]) [nM] | IC50 [3] [nM] |
| --- | --- | --- | --- |
| SC[C@@H](Cc1ccccc1)c1nc2cnccc2[nH]1 | 40 |  |  |
| COC(c1ccccc1)c1cnc(C(CS)Cc2ccccc2)[nH]1 (stereo not drawn) | 1700 |  |  |
| SC[C@@H](Cc1ccc(-c2ccccc2)cc1)c1nc2cnccc2[nH]1 | 30 |  |  |
| COCCOC[C@H](CC1(C(=O)N[C@H]2CC[C@@H](C(=O)O)CC2)CCCC1)C(=O)O [CANDOXATRILAT] |  | 6.1 |  |
| COc1cc(/C=C2\CCC/C(=C\c3ccc(O)c(OC)c3)C2=O)ccc1O [CYCLOVALONE] |  | 0.64 |  |
| O=C(N[C@H]1CCS[C@H]2CCC[C@@H](C(=O)O)N2C1=O)[C@@H](S)Cc1ccccc1 [OMAPATRILAT] | 5 | 0.45 |  |
| N[C@@H](Cc1ccc(Oc2cc(I)c(O)c(I)c2)c(I)c1)C(=O)O [REVERSE TRIIODOTHYRONINE] |  |  | 29800 |

From ChEMBL document CHEMBL6078628, “A perspective on the development of small molecular neprilysin inhibitors (NEPi) with emphasis on cardiorenal disease” (Eur J Med Chem, 2024)
